Test results published in patent US6921770B2 (priority 2000, dated 2005).
Where two headings read alike, the source gives them in different places.

Tested on: rice blast fungi
Format: in vivo, Pyricularia grisea

SMILES: Br.Cn1c(CC(=O)Nc2ccccc2)csc1=Nc1ccc(F)c(Cl)c1 [Compound 43, 2-(3-chloro-4-fluorophenylimino)-3-methyl-4-(N-phenylcarbamoylmethyl)-1,3-thiazol-4-ine hydrobromide]
- Inhibiting Ratio (%) (at 250 ppm): 93%

SMILES: Br.Cc1ccc(F)c(N=c2scc(CC(=O)Nc3ccccc3)n2C)c1 [Compound 44, 2-(2-fluoro-5-methylphenylimino)-3-methyl-4-(N-phenylcarbamoylmethyl)-1,3-thiazol-4-ine hydrobromide]
- Inhibiting Ratio (%) (at 250 ppm): 95%

SMILES: Br.Cn1c(CC(=O)Nc2ccccc2)csc1=Nc1cc(C(F)(F)F)cc(C(F)(F)F)c1 [Compound 45, 2-(3,5-ditrifluoromethylphenylimino)-3-methyl-4-(N-phenylcarbamoylmethyl)-1,3-thiazol-4-ine hydrobromide]
- Inhibiting Ratio (%) (at 250 ppm): 93%

SMILES: Br.Cc1ccc(NC(=O)Cc2csc(=Nc3ccc(C#N)cc3)n2C)cc1 [Compound 46]
- Inhibiting Ratio (%) (at 250 ppm): 100%

SMILES: Br.Cc1ccc(NC(=O)Cc2csc(=Nc3ccc(OC(F)(F)F)cc3)n2C)cc1 [Compound 47, 2-(4-trifluoromethoxyphenylimino)-3-methyl-4-[N-(4-methylphenyl)carbamoylmethyl]-1,3-thiazol-4-ine hydrobromide]
- Inhibiting Ratio (%) (at 250 ppm): 100%

SMILES: Br.Cc1ccc(NC(=O)Cc2csc(=Nc3cccc(F)c3)n2C)cc1 [Compound 48, 2-(3-fluorophenylimino)-3-methyl-4-[N-(4-methylphenyl)carbamoylmethyl]-1,3-thiazol-4-ine hydrobromide]
- Inhibiting Ratio (%) (at 250 ppm): 100%

SMILES: Br.Cc1ccc(NC(=O)Cc2csc(=Nc3ccc(Cl)cc3Cl)n2C)cc1 [Compound 49, 2-(2,4-dichlorophenylimino)-3-methyl-4-[N-(4-methylphenyl)carbamoylmethyl]-1,3-thiazol-4-ine hydrobromide]
- Inhibiting Ratio (%) (at 250 ppm): 100%

SMILES: Br.Cc1ccc(NC(=O)Cc2csc(=Nc3ccc(Cl)cc3F)n2C)cc1 [Compound 50, 2-(4-chloro-2-fluorophenylimino)-3-methyl-4-[N-(4-methylphenyl)carbamoylmethyl]-1,3-thiazol-4-ine hydrobromide]
- Inhibiting Ratio (%) (at 250 ppm): 100%

SMILES: Br.Cc1ccc(NC(=O)Cc2csc(=Nc3ccc(F)c(Cl)c3)n2C)cc1 [Compound 51, 2-(3-chloro-4-fluorophenylimino)-3-methyl-4-[N-(4-methylphenyl)carbamoylmethyl]-1,3-thiazol-4-ine hydrobromide]
- Inhibiting Ratio (%) (at 250 ppm): 99%

SMILES: Br.Cc1ccc(NC(=O)Cc2csc(=Nc3cc(C)ccc3F)n2C)cc1 [Compound 52, 2-(2-fluoro-5-methylphenylimino)-3-methyl-4-[N-(4-methylphenyl)carbamoylmethyl]-1,3-thiazol-4-ine hydrobromide]
- Inhibiting Ratio (%) (at 250 ppm): 99%

SMILES: Br.Cc1ccc(NC(=O)Cc2csc(=Nc3ccc(Cl)c(C(F)(F)F)c3)n2C)cc1 [Compound 53, 2-(4-chloro-3-trifluoromethylphenylimino)-3-methyl-4-[N-(4-methylphenyl)carbamoylmethyl]-1,3-thiazol-4-ine hydrobromide]
- Inhibiting Ratio (%) (at 250 ppm): 99%

SMILES: Br.Cc1ccc(NC(=O)Cc2csc(=Nc3cc(C(F)(F)F)cc(C(F)(F)F)c3)n2C)cc1 [Compound 54, 2-(3,5-ditrifluoromethylphenylimino)-3-methyl-4-[N-(4-methylphenyl)carbamoylmethyl]-1,3-thiazol-4-ine hydrobromide]
- Inhibiting Ratio (%) (at 250 ppm): 96%

SMILES: Br.Cc1ccc(NC(=O)Cc2csc(=Nc3ccc([N+](=O)[O-])cc3F)n2C)cc1 [Compound 55, 2-(2-fluoro-4-nitrophenylimino)-3-methyl-4-[N-(4-methylphenyl)carbamoylmethyl]-1,3-thiazol-4-ine hydrobromide]
- Inhibiting Ratio (%) (at 250 ppm): 96%

SMILES: Br.CCCCc1ccc(N=c2scc(CC(=O)Nc3cccc(Cl)c3)n2C)cc1 [Compound 56, 2-[4-(n-butyl)phenylimino]-3-methyl-4-[N-(3-chlorophenyl)carbamoylmethyl]-1,3-thiazol-4-ine hydrobromide]
- Inhibiting Ratio (%) (at 250 ppm): 96%

SMILES: Br.Cn1c(CC(=O)Nc2cccc(Cl)c2)csc1=Nc1ccc(C#N)cc1 [Compound 57, 2-(4-cyanophenylimino)-3-methyl-4-[N-(3-chlorophenyl)carbamoylmethyl]-1,3-thiazol-4-ine hydrobromide]
- Inhibiting Ratio (%) (at 250 ppm): 96%

SMILES: Br.Cn1c(CC(=O)Nc2cccc(Cl)c2)csc1=Nc1ccc(OC(F)(F)F)cc1 [Compound 58, 2-(4-trifluoromethoxyphenylimino)-3-methyl-4-[N-(3-chlorophenyl)carbamoylmethyl]-1,3-thiazol-4-ine hydrobromide]
- Inhibiting Ratio (%) (at 250 ppm): 96%

SMILES: Br.Cn1c(CC(=O)Nc2cccc(Cl)c2)csc1=Nc1cccc(F)c1 [Compound 59, 2-(3-fluorophenylimino)-3-methyl-4-[N-(3-chlorophenyl)carbamoylmethyl]-1,3-thiazoyl-4-ine hydrobromide]
- Inhibiting Ratio (%) (at 250 ppm): 96%

SMILES: Br.Cc1cc(Cl)ccc1N=c1scc(CC(=O)Nc2cccc(Cl)c2)n1C [Compound 61, 2-(4-chloro-2-methylphenylimino)-3-methyl-4-[N-(3-chlorophenyl)carbamoylmethyl]-1,3-thiazol-4-ine hydrobromide]
- Inhibiting Ratio (%) (at 250 ppm) (hydrobromide): 100%

SMILES: Br.Cc1ccc(N=c2scc(CC(=O)Nc3cccc(Cl)c3)n2C)cc1Cl [Compound 62, 2-(3-chloro-4-methylphenylimino)-3-methyl-4-[N-(3-chlorophenyl)carbamoylmethyl]-1,3-thiazol-4-ine hydrobromide]
- Inhibiting Ratio (%) (at 250 ppm): 100%

SMILES: Br.Cc1cc(Cl)ccc1N=c1scc(CC(=O)Nc2cccc(Cl)c2)n1C [Compound 63, 2-(4-chloro-2-methylphenylimino)-3-methyl-4-[N-(3-chlorophenyl)carbamoylmethyl]-1,3-thiazol-4-ine hydrobromide]
- Inhibiting Ratio (%) (at 250 ppm) (hydrobromide): 96%

SMILES: Br.COc1ccccc1N=c1scc(CC(=O)Nc2cccc(C(F)(F)F)c2)n1C [Compound 65, 2-(2-methoxyphenylimino)-3-methyl-4-[N-(3-trifluoromethylphenyl)carbamoylmethyl]-1,3-thiazol-4-ine hydrobromide]
- Inhibiting Ratio (%) (at 250 ppm): 98%

SMILES: Br.Cn1c(CC(=O)Nc2cccc(Cl)c2)csc1=Nc1ccc(Cl)cc1F [Compound 66, 2-(4-chloro-2-fluorophenylimino)-3-methyl-4-[N-(3-chlorophenyl)carbamoylmethyl]-1,3-thiazol-4-ine hydrobromide]
- Inhibiting Ratio (%) (at 250 ppm): 96%

SMILES: Br.Cc1ccc(N=c2scc(CC(=O)Nc3cccc(Cl)c3)n2C)c(F)c1 [Compound 67, 2-(2-fluoro-4-methylphenylimino)-3-methyl-4-[N-(3-chlorophenyl)carbamoylmethyl]-1,3-thiazol-4-ine hydrobromide]
- Inhibiting Ratio (%) (at 250 ppm): 100%

SMILES: Br.Cn1c(CC(=O)Nc2cccc(Cl)c2)csc1=Nc1ccc(F)cc1F [Compound 68, 2-(2,4-difluorophenylimino)-3-methyl-4-[N-(3-chlorophenyl)carbamoylmethyl]-1,3-thiazol-4-ine hydrobromide]
- Inhibiting Ratio (%) (at 250 ppm): 95%

SMILES: Br.CC(C)Oc1cc(N=c2scc(CC(=O)Nc3ccccc3)n2C)c(F)cc1Cl [Compound 69, 2-(4-chloro-2-fluoro-5-isoproxyphenylimino)-3-methyl-4-(N-phenylcarbamoylmethyl)-1,3-thiazol-4-ine hydrobromide]
- Inhibiting Ratio (%) (at 250 ppm): 96%

SMILES: Br.CC(C)=CCOc1cc(N=c2scc(CC(=O)Nc3ccccc3)n2C)c(F)cc1Cl [Compound 70, 2-(4-chloro-2-fluoro-5-(3,3,-dimethylallyloxy)phenylimino)-3-methyl-4-(N-phenylcarbamoylmethyl)-1,3-thiazol-4-ine hydrobromide]
- Inhibiting Ratio (%) (at 250 ppm): 96%

SMILES: COc1ccc(N=c2scc(CC(=O)Nc3ccccc3F)n2C)cc1.Cl [Compound 78, 2-(4-methoxyphenylimino)-3-methyl-4-[N-(2-fluorophenyl)carbamoylmethyl]-1,3-thiazol-4-ine hydrochloride]
- Inhibiting Ratio (%) (at 250 ppm): 91%

SMILES: Cl.Cn1c(CC(=O)Nc2ccccc2F)csc1=Nc1ccc(OC(F)(F)F)cc1 [Compound 79, 2-(4-trifluoromethoxyphenylimino)-3-methyl-4-[N-(2-fluorophenyl)carbamoylmethyl]-1,3-thiazol-4-ine hydrochloride]
- Inhibiting Ratio (%) (at 250 ppm): 90%

SMILES: Cl.Cn1c(CC(=O)Nc2ccccc2F)csc1=Nc1ccccc1F [Compound 89, 2-(2-fluorophenylimino)-3-methyl-4-[N-(2-fluorophenyl)carbamoylmethyl]-1,3-thiazol-4-ine hydrochloride]
- Inhibiting Ratio (%) (at 250 ppm): 83%

SMILES: Cl.Cn1c(CC(=O)Nc2ccccc2F)csc1=Nc1cccc(Cl)c1 [Compound 90, 2-(3-chlorophenylimino)-3-methyl-4-[N-(2-fluoro)phenylcarbamoylmethyl]-1,3-thiazol-4-ine hydrochloride]
- Inhibiting Ratio (%) (at 250 ppm): 91%

SMILES: Cl.Cn1c(CC(=O)Nc2ccc(Cl)cc2)csc1=Nc1ccc(C(F)(F)F)cc1 [Compound 98, 2-(4-trifluoromethylphenylimino)-3-methyl-4-[N-(4-chlorophenyl)carbamoylmethyl]-1,3-thiazol-4-ine hydrochloride]
- Inhibiting Ratio (%) (at 250 ppm): 96%

SMILES: COc1ccc(NC(=O)Cc2csc(=Nc3cc(Cl)cc(Cl)c3)n2C)cc1.Cl [Compound 102, 2-(3,5-dichlorophenylimino)-3-methyl-4-[N-(4-methoxyphenyl)carbamoylmethyl]-1,3-thiazol-4-ine hydrochloride]
- Inhibiting Ratio (%) (at 250 ppm): 93%

SMILES: COc1ccc(NC(=O)Cc2csc(=Nc3ccc(Cl)cc3)n2C)cc1.Cl [Compound 104, 2-(4-chlorophenylimino)-3-methyl-4-[N-(4-methoxyphenyl)carbamoylmethyl]-1,3-thiazol-4-ine hydrochloride]
- Inhibiting Ratio (%) (at 250 ppm): 93%

SMILES: CC(C)Oc1ccc(N=c2scc(CC(=O)Nc3ccccc3F)n2C)cc1.Cl [Compound 105, 2-(4-isopropoxyphenylimino)-3-methyl-4-[N-(2-fluorophenyl)carbamoylmethyl]-1,3-thiazol-4-ine hydrochloride]
- Inhibiting Ratio (%) (at 250 ppm): 90%

SMILES: Cl.Cn1c(CC(=O)Nc2ccc(OC(F)(F)F)cc2)csc1=Nc1ccc(OC(F)(F)F)cc1 [Compound 108, 2-(4-trifluoromethoxyphenylimino)-3-methyl-4-[N-(4-trifluoromethoxyphenyl)carbamoylmethyl]-1,3-thiazol-4-ine hydrochloride]
- Inhibiting Ratio (%) (at 250 ppm): 91%
